Patent US20250215010A1, “DIAZABICYCLOOCTANE DERIVATIVES USEFUL AS MATRIX METALLOPROTEINASE INHIBITORS” (VASA THERAPEUTICS SPOLKA Z OGRANICZONA ODPOWIEDZIALNOSCIA, priority 2022, published 2025)
Like-named read-outs stand apart in the source and are kept apart here.

Key:
Format in all cases: biochemical
MMP1 = target: T1, MMP1 (Homo sapiens, UniProt P03956); experiment: MMP-1 colorimetric inhibition assay (Enzo kit BML-AK404)
T1 sequence (P03956 100-269 limits assumed): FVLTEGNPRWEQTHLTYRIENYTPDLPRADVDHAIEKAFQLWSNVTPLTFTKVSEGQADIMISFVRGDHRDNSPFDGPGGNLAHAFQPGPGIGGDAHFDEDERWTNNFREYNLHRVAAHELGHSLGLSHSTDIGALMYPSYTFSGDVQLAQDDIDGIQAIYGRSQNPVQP
Summary of the method: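 Colorimetric kit run per manufacturer protocol. MMP-1 cleaves a thiopeptide substrate (Ac-PLG-[2-mercapto-4-methylpentanoyl]-LG-OC2H5); released thiol reacts with DTNB, monitored at 415 nm. IC50 (nM) from inhibition curves of normalized values.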

ADAM10 = target: T2, ADAM10 (Homo sapiens, UniProt O14672); experiment: SensoLyte 520 ADAM10 fluorometric activity assay (AnaSpec AS-72226); details: FRET peptide substrate, ex/em 495/520 nm; read-out: ADAM 10 IC50 class
T2 construct: purchased AnaSpec, Inc. AS-72226
T2 sequence (O14672 214-748): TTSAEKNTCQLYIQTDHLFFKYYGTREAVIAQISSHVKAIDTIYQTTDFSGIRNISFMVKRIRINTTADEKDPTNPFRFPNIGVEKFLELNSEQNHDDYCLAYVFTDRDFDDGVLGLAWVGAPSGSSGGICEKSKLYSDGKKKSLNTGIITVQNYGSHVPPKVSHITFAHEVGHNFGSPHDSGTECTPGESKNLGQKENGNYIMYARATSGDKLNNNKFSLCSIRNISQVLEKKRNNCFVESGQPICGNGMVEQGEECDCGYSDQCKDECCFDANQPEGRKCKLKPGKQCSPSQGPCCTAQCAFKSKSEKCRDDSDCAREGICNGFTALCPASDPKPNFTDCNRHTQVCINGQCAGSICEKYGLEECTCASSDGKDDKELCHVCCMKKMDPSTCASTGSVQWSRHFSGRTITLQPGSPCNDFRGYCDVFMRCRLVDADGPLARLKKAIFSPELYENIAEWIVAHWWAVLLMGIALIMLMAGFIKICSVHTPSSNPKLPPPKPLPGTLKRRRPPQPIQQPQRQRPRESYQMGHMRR
Protocol: The inhibitory activities of the compounds of the invention were assessed in 96-well microplate format using MMP1, MMP2, MMP9 and MMP13 colorimetric assay kits and TACE fluorometric assay kit from Enzo Life Sciences, Inc. The inhibitory effect of the compounds of the invention on ADAM10 activity were evaluated in 96-well microplate format using fluorometric assay from AnaSpec, Inc.
SensoLyte® 520 ADAM10 Activity Assay Kit (catalog #AS-72226) is a complete assay system designed to screen ADAM10 inhibitors using FRET-based peptide substrate containing the 5-FAM/QXL™ 520 fluorophore/quencher pair. The fluorescence of 5-FAM is quenched by QXL™ 520 and recovered upon cleavage of the peptide by active ADAM10.
The inhibitory activity of the compounds of the invention against ADAM10 was tested according to the manufacturer's assay protocol and the fluorescence was monitored at excitation/emission wavelengths=495 nm/520 nm using Tecan Infinite® 200 Pro F Nano^+ microplate reader.
The normalized values were analyzed using GraphPadPrism 9 for Windows (GraphPad Software, San Diego, CA, USA) software by plotting inhibition curves and determining the IC50 values (in nM).

ADAM17 (TACE) = ADAM17 (TACE) (Homo sapiens, UniProt P78536); experiment: TACE fluorometric inhibition assay (Enzo kit BML-AK310)
Chain of ADAM17 (TACE) (P78536 215-477 limits assumed): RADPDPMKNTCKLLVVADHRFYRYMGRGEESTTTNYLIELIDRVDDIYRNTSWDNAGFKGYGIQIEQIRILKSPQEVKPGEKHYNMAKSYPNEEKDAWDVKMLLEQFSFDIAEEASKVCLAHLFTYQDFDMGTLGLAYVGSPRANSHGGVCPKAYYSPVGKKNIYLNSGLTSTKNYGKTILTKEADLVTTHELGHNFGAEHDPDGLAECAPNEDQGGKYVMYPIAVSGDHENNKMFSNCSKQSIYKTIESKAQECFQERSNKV
Summary of the method: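 Kit-based TACE assay run per manufacturer's protocol, using quenched fluorogenic peptide Mca-PLAQAV-Dpa-RSSSR-NH2 whose cleavage raises Mca fluorescence. Signal read at ex/em 320/420 nm; IC50 (nM) derived from inhibition curves of normalized values.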

MMP13 = target: T3, MMP13 (Homo sapiens, UniProt P45452); experiment: MMP-13 colorimetric inhibition assay (Enzo kit BML-AK412)
T3 construct: purchased Enzo Life Sciences, Inc. BML-AK412
Summary of the method: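 Thiopeptide chromogenic substrate (Ac-PLG-[2-mercapto-4-methylpentanoyl]-LG-OC2H5); MMP-13 hydrolysis of the thioester yields a thiol that reacts with DTNB, read at 415 nm. IC50 values (nM) derived from inhibition curves of normalized data.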

MMP2 = target: T4, MMP2 (Homo sapiens, UniProt P08253); experiment: MMP-2 colorimetric inhibition assay (Enzo kit BML-AK408)
T4 sequence (P08253 110-660): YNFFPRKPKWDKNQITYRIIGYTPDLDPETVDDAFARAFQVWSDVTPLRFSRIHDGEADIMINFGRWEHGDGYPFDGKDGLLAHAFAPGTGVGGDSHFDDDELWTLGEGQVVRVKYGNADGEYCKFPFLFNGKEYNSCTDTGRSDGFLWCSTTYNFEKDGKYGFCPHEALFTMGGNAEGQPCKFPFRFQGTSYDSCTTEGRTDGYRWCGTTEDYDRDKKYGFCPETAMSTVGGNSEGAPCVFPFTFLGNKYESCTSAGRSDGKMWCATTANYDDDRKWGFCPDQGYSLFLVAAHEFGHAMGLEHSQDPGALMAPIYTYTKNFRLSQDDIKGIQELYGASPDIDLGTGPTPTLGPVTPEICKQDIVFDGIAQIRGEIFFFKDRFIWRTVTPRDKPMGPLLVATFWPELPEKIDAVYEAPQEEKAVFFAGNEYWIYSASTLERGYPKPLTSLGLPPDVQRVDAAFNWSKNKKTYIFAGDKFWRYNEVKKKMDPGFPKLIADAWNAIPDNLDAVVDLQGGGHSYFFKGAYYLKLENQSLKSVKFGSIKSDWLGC
Summary of the method: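 Cleavage of the thiopeptide Ac-PLG-[2-mercapto-4-methylpentanoyl]-LG-OC2H5 releases a sulfhydryl that reacts with DTNB, read at 415 nm per the kit protocol. IC50 values (nM) come from inhibition curves of normalized data.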

MMP9 = MMP9 (Homo sapiens, UniProt P14780); experiment: MMP-9 colorimetric inhibition assay (Enzo kit BML-AK410)
Chain of MMP9 (P14780 94-707): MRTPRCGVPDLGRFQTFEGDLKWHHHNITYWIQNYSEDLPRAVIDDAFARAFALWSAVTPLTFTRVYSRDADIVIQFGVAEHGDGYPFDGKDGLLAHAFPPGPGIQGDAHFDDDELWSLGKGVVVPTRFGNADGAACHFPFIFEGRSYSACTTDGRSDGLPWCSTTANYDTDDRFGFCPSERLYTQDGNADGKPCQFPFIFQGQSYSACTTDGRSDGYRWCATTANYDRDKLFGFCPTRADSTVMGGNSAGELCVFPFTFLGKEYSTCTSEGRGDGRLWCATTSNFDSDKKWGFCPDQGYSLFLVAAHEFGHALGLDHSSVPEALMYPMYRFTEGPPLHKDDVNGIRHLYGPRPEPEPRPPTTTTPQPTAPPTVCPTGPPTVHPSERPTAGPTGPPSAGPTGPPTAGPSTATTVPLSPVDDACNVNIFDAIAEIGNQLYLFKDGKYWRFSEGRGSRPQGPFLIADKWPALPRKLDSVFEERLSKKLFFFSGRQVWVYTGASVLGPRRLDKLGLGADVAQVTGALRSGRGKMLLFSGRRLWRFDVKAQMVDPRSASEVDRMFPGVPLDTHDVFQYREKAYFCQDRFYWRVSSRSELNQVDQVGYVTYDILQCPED
Summary of the method: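 Colorimetric thioester-substrate assay: hydrolysis of Ac-PLG-[2-mercapto-4-methylpentanoyl]-LG-OC2H5 frees a thiol that reacts with DTNB, read at 415 nm. Run per kit protocol. IC50 (nM) taken from inhibition curves of normalized values.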

[1] = thiopeptide substrate, absorbance 415 nm, read-out: MMP 1 IC50 class
[2] = quenched fluorogenic peptide, ex/em 320/420 nm, read-out: TACE IC50 class
[3] = thiopeptide substrate, absorbance 415 nm, read-out: MMP 13 IC50 class
[4] = thiopeptide substrate, absorbance 415 nm, read-out: MMP 2 IC50 class
[5] = thiopeptide substrate, absorbance 415 nm, read-out: MMP 9 IC50 class

Row | Structure (SMILES) | IC50 (MMP1; [1]) | IC50 (ADAM10) | IC50 (ADAM17 (TACE); [2]) | IC50 (MMP13; [3]) | IC50 (MMP2; [4]) | IC50 (MMP9; [5]) | IC50 (MMP1) | IC50 (ADAM17 (TACE)) | IC50 (MMP13) | IC50 (MMP2) | IC50 (MMP9)
1 | CC(C)(C)C(=O)N1[C@@H]2CC[C@H]1[C@H](C(=O)NO)N(S(=O)(=O)c1ccc(Oc3ccc(OC(F)(F)F)cc3)nc1)C2 [Example 57, (1S,2R,5R)-N-hydroxy-8-pivaloyl-3-((6-(4-(trifluoro-methoxy)phenoxy)-pyridin-3-yl)-sulfonyl)-3,8-diazabicyclo-[3.2.1]octane-2-carboxamide] | 1000 to 10000 nM | > 10000 nM | 1000 to 10000 nM | < 50 nM | < 50 nM | < 50 nM | – | – | – | – | –
2 | COCCOC(=O)N1[C@@H]2CC[C@H]1[C@H](C(=O)NO)N(S(=O)(=O)c1ccc(Oc3ccc(OC)nc3)nc1)C2 [Example 28, 2-methoxyethyl (1S,2R,5R)-2-(hydroxycarbamoyl)-3-((6-((6-methoxy-pyridin-3-yl)oxy)-pyridin-3-yl)-sulfonyl)-3,8-diaza-bicyclo[3.2.1]octane-8-carboxylate] | 50 to 1000 nM | > 10000 nM | 1000 to 10000 nM | < 50 nM | < 50 nM | < 50 nM | – | – | – | – | –
3 | CCc1ccc(Oc2ccc(S(=O)(=O)N3C[C@H]4CC[C@@H]([C@@H]3C(=O)NO)N4C(=O)OCCOC)cn2)cc1 [Example 33, 2-methoxyethyl (1S,2R,5R)-3-((6-(4-ethylphenoxy)pyridin-3-yl)sulfonyl)-2-(hydroxycarbamoyl)-3,8-diazabicyclo-[3.2.1]octane-8-carboxylate] | 1000 to 10000 nM | > 10000 nM | 1000 to 10000 nM | < 50 nM | < 50 nM | < 50 nM | – | – | – | – | –
4 | COCCOC(=O)N1[C@@H]2CC[C@H]1[C@H](C(=O)NO)N(S(=O)(=O)c1ccc(Oc3ccc(Cl)cc3)nc1)C2 [Example 8, 2-methoxyethyl (1S,2R,5R)-3-((6-(4-chlorophenoxy)pyridin-3-yl)sulfonyl)-2-(hydroxycarbamoyl)-3,8-diazabicyclo-[3.2.1]octane-8-carboxylate] | 50 to 1000 nM | 1000 to 10000 nM | 50 to 1000 nM | < 50 nM | < 50 nM | < 50 nM | – | – | – | – | –
5 | COCCOC(=O)N1[C@@H]2CC[C@H]1[C@H](C(=O)NO)N(S(=O)(=O)N1CCC(Oc3ccc(F)cc3)C1)C2 (stereo partly drawn) [Example 47, 2-methoxyethyl (1S,2R,5R)-3-((3-(4-fluoro-phenoxy)-pyrrolidin-1-yl)-sulfonyl)-2-(hydroxy-carbamoyl)-3,8-diazabicyclo-[3.2.1]octane-8-carboxylate] | – | – | – | – | – | – | > 10000 nM | 50 to 1000 nM | 1000 to 10000 nM | 1000 to 10000 nM | 1000 to 10000 nM
6 | COCCOC(=O)N1[C@@H]2CC[C@H]1[C@H](C(=O)NO)N(S(=O)(=O)N1CCN(Cc3ccc(Cl)cc3)CC1)C2 [Example 76, 2-methoxyethyl (1S,2R,5R)-3-((4-(4-chlorobenzyl)piperazin-1-yl)sulfonyl)-2-(hydroxycarbamoyl)-3,8-diazabicyclo[3.2.1]octane-8-carboxylate] | > 10000 nM | – | 1000 to 10000 nM | 50 to 1000 nM | 50 to 1000 nM | 50 to 1000 nM | – | – | – | – | –
7 | COCCOC(=O)N1[C@@H]2CC[C@H]1[C@H](C(=O)NO)N(S(=O)(=O)c1ccc(OC3CCC(OC)CC3)nc1)C2 (stereo partly drawn) [Example 11, 2-methoxyethyl (1S,2R,5R)-2-(hydroxycarbamoyl)-3-((6-((4-methoxy-cyclohexyl)oxy)-pyridin-3-yl)-sulfonyl)-3,8-diaza-bicyclo[3.2.1]octane-8-carboxylate] | – | – | – | – | – | – | 1000 to 10000 nM | 1000 to 10000 nM | 50 to 1000 nM | < 50 nM | < 50 nM
8 | O=C(NO)[C@H]1[C@@H]2CC[C@H](CN1S(=O)(=O)c1ccc(Oc3ccc(F)cc3)nc1)N2CC(=O)N1CCCC1 [Example 52, (1S,2R,5R)-3-((6-(4-fluorophenoxy)pyridin-3-yl)sulfonyl)-N-hydroxy-8-(2-oxo-2-(pyrrolidin-1-yl)ethyl)-3,8-diazabicyclo[3.2.1]octane-2-carboxamide] | 1000 to 10000 nM | – | > 10000 nM | < 50 nM | < 50 nM | 50 to 1000 nM | – | – | – | – | –
9 | COCCOC(=O)N1[C@@H]2CC[C@H]1[C@H](C(=O)NO)N(S(=O)(=O)c1ccc(Oc3nc4ccc(Cl)cc4o3)c(F)c1)C2 [Example 80, 2-methoxyethyl (1S,2R,5R)-3-((4-((6-chlorobenzo[d]-oxazol-2-yl)oxy)-3-fluorophenyl)-sulfonyl)-2-(hydroxycarbamoyl)-3,8-diazabicyclo-[3.2.1]octane-8-carboxylate] | > 10000 nM | – | 1000 to 10000 nM | 1000 to 10000 nM | 1000 to 10000 nM | 1000 to 10000 nM | – | – | – | – | –
10 | COCCOC(=O)N1[C@@H]2CC[C@H]1[C@H](C(=O)NO)N(S(=O)(=O)c1ccc(Oc3cnn(C(C)C)c3)nc1)C2 [Example 37, 2-methoxyethyl (1S,2R,5R)-2-(hydroxycarbamoyl)-3-((6-((1-isopropyl-1H-pyrazol-4-yl)-oxy)pyridin-3-yl)-sulfonyl)-3,8-diazabicyclo-[3.2.1]octane-8-carboxylate] | 1000 to 10000 nM | – | 50 to 1000 nM | 50 to 1000 nM | 50 to 1000 nM | 50 to 1000 nM | – | – | – | – | –
11 | COCCOC(=O)N1[C@@H]2CC[C@H]1[C@H](C(=O)NO)N(S(=O)(=O)c1ccc(Oc3nc4cc(Cl)ccc4o3)c(F)c1)C2 [Example 81, 2-methoxyethyl (1S,2R,5R)-3-((4-((5-chlorobenzo[d]-oxazol-2-yl)oxy)-3-fluorophenyl)sulfonyl)-2-(hydroxy-carbamoyl)-3,8-diazabicyclo[3.2.1]-octane-8-carboxylate] | > 10000 nM | – | 1000 to 10000 nM | > 10000 nM | > 10000 nM | 1000 to 10000 nM | – | – | – | – | –
